Read-outs that look alike come from different tables or passages of the source.
How the values were obtained:
[1] = test system: photothrombosis-induced stroke in mice; experiment: mouse photothrombotic stroke model; assay type: in vivo
Description: Photothrombosis-induced Stroke: Photothrombosis is performed as described in Zheng et al 2010 (PloS One 5 (12): e14401). In brief, Rose Bengal is a fluorescent dye that when injected into the vasculature and excited, generates singlet oxygen that damages the endothelial wall and induces a local thrombosis (clot). Using this technique, mice are given a 0.1 mL tail-vein injection of sterilized Rose Bengal (RB, Sigma, U.S.A.) in artificial cerebral spinal fluid (aCSF). The RB concentration is 20 mg/mL. A cortical region is centered in the imaging field and illuminated with a green laser (543 nm, 5 mW) using a 0.8-NA 40× water-immersion objective (Nikon, Tokyo). The clot formation is monitored in real time until the targeted vessel or downstream capillaries are firmly occluded. […]
Animals and Photothrombosis-induced Stroke: Stroke is performed as described in Zheng et al 2010 (PloS One 5 (12): e14401). […] Depth of anesthesia is monitored and regulated according to vital signs, pinch withdrawal and eye blinks. […] Vital signs including oxygen saturation, respiratory rate, and heart rate are continuously monitored by using the MouseOx system (STARR Life Sciences). […]
Post photothrombotic infarction evaluation. The size of cerebral infarcts is evaluated using 2,3,5-Triphenyltetrazolium chloride (TTC) staining as described in Zheng et al 2010 (PloS One 5 (12): e14401). […]

[2] = plasma and brain unbound fractions of I-1 in nonhuman primates; assay type: in vitro ADME; settings: nonhuman primate, Normal NHP (n = 3)
[3] = pre-efficacy pharmacokinetic study, intravenous bolus/constant rate infusion in tMCAO cynomolgus monkeys; assay type: in vivo, cynomolgus monkey; settings: tMCAO (n = 1); for Kp at 22 h: cynomolgus monkey, CSF/plasma, intravenous, read-out: CSF/Plasma At 22-hour End of Dosing
Description: Macaques received a bolus dose of vehicle (40% PEG400 in 0.9% saline) or I-1 into a saphenous vein 2 h after occlusion (2 h prior to restoration of MCA blood flow), followed immediately by a 22 h intravenous infusion. This dosing regimen was designed to rapidly achieve and maintain pre-determined plasma and cerebrospinal fluid (CSF) steady-state concentrations of I-1 based on its pharmacokinetics previously determined in näive and MCA occluded macaques (Tables A-C below).
We then proceeded to our key preclinical stroke efficacy model in nonhuman primates. Pre-efficacy pharmacokinetic studies obtained plasma and CSF pharmacokinetic data. The I-1 CSF concentrations were combined with receptor affinity data to estimate receptor occupancy, and the combination of CSF concentrations and associated receptor occupancies were used to set dose regimens for the efficacy study.

[4] = brain tissue binding (free fraction); assay type: in vitro ADME, mouse
Description: Example 3 of U.S. Pat. No. 9,789,131, which is incorporated herein by reference, describes assays for determining the plasma and brain free fraction of certain compounds such as I-1. Compounds described herein may be evaluated using such assays or similar variants thereof.

[5] = bolus 0.11 mg/kg / infusion 0.0582 mg/kg/hr
[6] = bolus 1.7 mg/kg / infusion 0.9 mg/kg/hr
[7] = bolus 5.2 mg/kg / infusion 2.76 mg/kg/hr

## CSc1nc(N)c2ncn([C@H]3C(O)C(O)[C@]4(CO)C[C@H]34)c2n1 (stereo in doubt) [Compound I-1]
[1]; mouse photothrombotic stroke and TBI models
  efficacy in presence of the A3 antagonist MRS1523: blocked
[1]; mouse, in vivo
  efficacy in mouse photothrombotic stroke model: significant efficacy
[2]; brain, read-out: Brain Unbound Fraction
  fraction unbound: 0.56 ± 0.05
[2]; plasma, read-out: Plasma Unbound Fraction
  fraction unbound: 0.26 ± 0.05
[3]; [5]
  Kp at 22 h: 0.094
  Actual Time-Averaged Steady-State [Plasma]: 25 ng/mL
  Predicted Steady-State [Plasma]: 35 ng/mL
[3]; [6]
  Kp at 22 h: 0.084
  Actual Time-Averaged Steady-State [Plasma]: 363 ng/mL
  Predicted Steady-State [Plasma]: 540 ng/mL
[3]; [7]
  Kp at 22 h: 0.065
  Actual Time-Averaged Steady-State [Plasma]: 1812 ng/mL
  Predicted Steady-State [Plasma]: 1660 ng/mL
[4]; mouse brain tissue
  free (unbound) fraction in brain: 0.13
[4]; mouse models
  fraction available to interact with the A3 receptor, versus Cl-IB-IMECA: at least 1000 fold
